Source: patent US7365099B2, “Animal body fat control” (Wisconsin Alumni Research Foundation, priority 2001, dated 2008)

Columns and labels:
3T3-L1 adipocytes = assay: Glycerol released from 3T3-L1 adipocytes; assay type: cell-based; details: treated 20–24 hours
Description: Fat reduction by CLA is partly due to inhibition of lipoprotein lipase (LPL) in adipocytes, as has been previously shown using a 3T3-L1 adipocyte cell culture model. Using the same model, the effects on LPL of aspirin and NDGA, as compared to CLA, were tested. 3T3-L1 preadipocytes were cultured as described. Frost, S. C. and M. D. Lane, J. Biol. Chem. 260: 2646–2652(1985). Briefly, 3T3-L1 preadipocytes were grown to confluence at 37° C. in Dulbecco's Modified Eagle's Medium (DMEM) with 10% fetal bovine serum (FBS). At two days post-confluence (designated “day 0”) cell differentiation was induced with a mixture of methylisobutylxanthine (0.5 mM), dexamethasone (0.25 μM), and insulin (1 μg/ml) in DMEM containing 10% FBS. On “day 2” this medium was replaced with DMEM medium containing 10% FBS and insulin only. On “day 4” and thereafter the medium was DMEM plus 10% FBS only; this medium was subsequently replaced with fresh medium at 2 day intervals.
Cells were treated with other known lipoxygenase inhibitors. Cells were treated with testing compounds for 20–24 hours at day 6 or 7 post differentiation. Based on the ED50 of these inhibitors, various doses were first tested. In FIG. 5A, the concentration of SHA, CLA, ETYA, indomethacin, NDGA and AA861 were 1×10^−3 M, 1×10^−4 M, 1×10^−4 M, 1×10^−4 M, 1×10^−5 M and 1×10^−6 M, respectively. In FIG. 5B, the cells were treated with the test compounds at 1×10^−4 M. CLA was complexed with albumin and others were dissolved in ethanol. All dishes including control contained the same concentration of albumin (1×10^−4 M) and ethanol (final concentration of 0.1%). Numbers are mean±S.E. (in FIG. 5A, n=7–8, collected from 2 independent experiments, in FIG. 5B, n=11–12, collected from 3 independent experiments). […] Indomethacin blocks both cyclooxygenase and lipoxygenase, the two primary enzymes in the arachidonic acid metabolic cascade. […] When 100 μM of these were tested, the potency was AA861>NDGA>ETYA>Indomethacin>CLA. […]

[1] = tested on: lipoprotein lipase associated with 3T3-L1 adipocytes; assay: Heparin-releasable lipoprotein lipase (LPL) activity in 3T3-L1 adipocyte cultures; assay type: cell-based; details: for potency in reducing LPL (rank order, in words): FIG. 5B, 20–24 hours, all test compounds at 100 μM; for LPL activity (in words): CLA 100 μM, aspirin 100 μM
Description: Using the same model, the effects on LPL of aspirin and NDGA, as compared to CLA, were tested. 3T3-L1 preadipocytes were cultured as described. […] Briefly, 3T3-L1 preadipocytes were grown to confluence at 37° C. in Dulbecco's Modified Eagle's Medium (DMEM) with 10% fetal bovine serum (FBS). At two days post-confluence (designated “day 0”) cell differentiation was induced with a mixture of methylisobutylxanthine (0.5 mM), dexamethasone (0.25 μM), and insulin (1 μg/ml) in DMEM containing 10% FBS. On “day 2” this medium was replaced with DMEM medium containing 10% FBS and insulin only. On “day 4” and thereafter the medium was DMEM plus 10% FBS only; this medium was subsequently replaced with fresh medium at 2 day intervals.
First, aspirin was tested along with PGE2, which is the final product of cyclooxygenase. Cells were treated with testing compounds for 4 hours before harvesting at day 6 or 7 post differentiation. The concentration of CLA, aspirin, and PGE2 were 1×10^−4 M, 1×10^−4 M, and 1×10^−6 M respectively. […] All dishes (including control) contained the same concentration of albumin (1×10^−4 M) and ethanol (final concentration of 0.1%).
Heparin-releasable lipoprotein lipase (LPL) activity (EC 3.1.1.34, 10 U heparin/ml media for 1 hr at 37° C.) was measured as described. Nilsson-Ehle, P. and M. C. […] Protein was determined using Bio-Rad DC Protein assay kit.
In a next set of cell culture experiments, shown in FIG. 4, cells were treated with testing compounds for 20–24 hours at day 7 post differentiation. […] CLA was complexed with albumin, and aspirin and NDGA were dissolved in ethanol. All dishes including control contained the same concentration of albumin (1×10^−4 M) and ethanol (final concentration of 0.05%). Numbers are mean±S.E. (n=7–8, collected from 2 independent experiments).
Cells were treated with other known lipoxygenase inhibitors. Cells were treated with testing compounds for 20–24 hours at day 6 or 7 post differentiation. Based on the ED50 of these inhibitors, various doses were first tested. In FIG. 5A, the concentration of SHA, CLA, ETYA, indomethacin, NDGA and AA861 were 1×10^−3 M, 1×10^−4 M, 1×10^−4 M, 1×10^−4 M, 1×10^−5 M and 1×10^−6 M, respectively. In FIG. 5B, the cells were treated with the test compounds at 1×10^−4 M. CLA was complexed with albumin and others were dissolved in ethanol. All dishes including control contained the same concentration of albumin (1×10^−4 M) and ethanol (final concentration of 0.1%). Numbers are mean±S.E. (in FIG. 5A, n=7–8, collected from 2 independent experiments, in FIG. 5B, n=11–12, collected from 3 independent experiments). […] Indomethacin blocks both cyclooxygenase and lipoxygenase, the two primary enzymes in the arachidonic acid metabolic cascade.

[2] = Body weights of mice on NDGA/CLA diets (Experiment 2, FIG. 2); assay type: in vivo; details: male ICR mice
Description: (§1) After a 5 day adaptation period, four-week-old weanling male ICR mice (Harlan Sprague-Dawley) were randomly separated into groups that were fed one of the treatment diets for 4 weeks. Mice were fed either a control diet (as in Experiment 1), or a diet supplemented with CLA (0.1%), NDGA (0.1% or 0.005%), or CLA (0.1%) with NDGA (0.1% or 0.005%). The lower level of NDGA was chosen based on the level used as an antioxidant in the food industry. Supplemental NDGA was added to diets at the expense of sugar. Diet was stored at −20° C. until use. Mice were housed individually in a windowless room with a 12-h light-dark cycle in strict accordance to guidelines established by the Research Animal Resources Center of University of Wisconsin-Madison. Diet and water, available ad libitum, were freshly provided three times per week.

ICR mice [3] = assay: Body composition analysis of mice on NDGA/CLA diets (Experiment 2); assay type: in vivo; details: male ICR mice; for % Ash / ECW (empty carcass weight): mean±S.E., N=5–6; for body composition versus control (in words): 4 weeks
Description: For body composition analyses, animals were sacrificed, gut contents were removed (to obtain empty carcass weight, “ECW”), and the carcasses frozen at −20° C. Frozen carcasses were chopped, and freeze dried to determine water content. Each dried carcass was ground to give a homogeneous sample before further analysis. Total nitrogen was analyzed by the Kjeldahl method. Helrich, K., Official Methods of Analysis, 15th ed.: 935–937(1990). Carcass fat content was measured by extraction with diethyl ether overnight using a Soxhlet apparatus. Total ash content was determined by incineration (500–600° C., overnight).
as §1

fat tissue = details: reported by Gowri et al. 2000; cited from earlier work
[4] = Food intake of mice on NDGA/CLA diets (Experiment 2); assay type: in vivo; details: male ICR mice, mean±S.E., N=5–6
Description: as §1

ICR mice [5] = assay: Body composition analysis of mice on aspirin/CLA diets (Experiment 1); assay type: in vivo; details: female ICR mice, 4 weeks
Source text: After a 5 day adaptation period, four-week-old weanling female ICR mice (Harlan Sprague-Dawley) were randomly separated into groups that were fed one of the treatment diets for 4 weeks. Mice were fed either a control diet, or a diet supplemented with aspirin alone (0.03%), 0.5% CLA alone, or CLA with additional aspirin (0.006% [“Asp1”] or 0.03% [“Asp2”]). The control diet was semi-purified TD94060 diet, 99% basal mix from Harlan Teklad, Madison, Wis. that contained (ingredient, g/kg): sucrose, 476; casein, “vitamin-free” test, 210; corn starch, 150; DL-methionine, 3; corn oil 55; cellulose, 50; mineral mix, AIN-76, 35; vitamin mix, AIV-76A, 10; calcium carbonate, 4; choline bitartrate, 2; and ethoxyquin, 0.1. The aspirin doses reflect an average human dose (0.03%) or a recommended dose for preventing cardiovascular disease (0.006%). Supplemental CLA was added to diets at the expense of corn oil. Diet was stored at −20° C. until use. […]
For body composition analyses, animals were sacrificed, gut contents were removed (to obtain empty carcass weight, “ECW”), and the carcasses frozen at −20° C. […] Total nitrogen was analyzed by the Kjeldahl method. […] Carcass fat content was measured by extraction with diethyl ether overnight using a Soxhlet apparatus. Total ash content was determined by incineration (500–600° C., overnight).

[6] = Body weights of mice on aspirin/CLA diets (Experiment 1, FIG. 1); assay type: in vivo; details: female ICR mice, 0.5% CLA and/or 0.03% aspirin
Source text: After a 5 day adaptation period, four-week-old weanling female ICR mice (Harlan Sprague-Dawley) were randomly separated into groups that were fed one of the treatment diets for 4 weeks. Mice were fed either a control diet, or a diet supplemented with aspirin alone (0.03%), 0.5% CLA alone, or CLA with additional aspirin (0.006% [“Asp1”] or 0.03% [“Asp2”]). The control diet was semi-purified TD94060 diet, 99% basal mix from Harlan Teklad, Madison, Wis. that contained (ingredient, g/kg): sucrose, 476; casein, “vitamin-free” test, 210; corn starch, 150; DL-methionine, 3; corn oil 55; cellulose, 50; mineral mix, AIN-76, 35; vitamin mix, AIV-76A, 10; calcium carbonate, 4; choline bitartrate, 2; and ethoxyquin, 0.1. The aspirin doses reflect an average human dose (0.03%) or a recommended dose for preventing cardiovascular disease (0.006%). Supplemental CLA was added to diets at the expense of corn oil. Diet was stored at −20° C. until use. Mice were housed individually in a windowless room with a 12-h light-dark cycle in strict accordance to guidelines established by the Research Animal Resources Center of University of Wisconsin-Madison. Diet and water, available ad libitum, were freshly provided three times per week.

[7] = 0.005% NDGA, with or without 0.1% CLA
[8] = FIG. 4, treated 20–24 hours at day 7 post differentiation, NDGA 50 μM
[9] = 4 weeks diet with 0.005% NDGA, with or without 0.1% CLA
[10] = 4 weeks diet with 0.1% CLA and/or 0.1% NDGA
[11] = diet with 0.005% NDGA, with or without 0.1% CLA
[12] = diet with 0.1% CLA and/or 0.1% NDGA
[13] = FIG. 3, treated 4 hours, day 6 or 7 post differentiation, PGE2 1 μM

## CC1=C(C)C(=O)C(CCCCC#CCCCC#CCO)=C(C)C1=O [AA861, 2-[12-hydroxydodeca-5,10-diynyl]-3,5,6-trimethyl-p-benzoquinone]
3T3-L1 adipocytes
  glycerol released from the cell (in words): reduced the glycerol release
[1]
  potency in reducing LPL (rank order, in words): AA861>NDGA>ETYA>Indomethacin>CLA

## CCCCCC#CCC#CCC#CCC#CCCCC(=O)O [ETYA, 5,8,11,14-eicosatetraynoic acid]
[1]
  potency in reducing LPL (rank order, in words): AA861>NDGA>ETYA>Indomethacin>CLA

## COc1ccc2c(c1)c(CC(=O)O)c(C)n2C(=O)c1ccc(Cl)cc1 [Indomethacin, indomethacin]
[1]
  potency in reducing LPL (rank order, in words): AA861>NDGA>ETYA>Indomethacin>CLA

## CC(Cc1ccc(O)c(O)c1)C(C)Cc1ccc(O)c(O)c1 (stereo not shown) [NDGA, nordihydroguaiaretic acid]
[2]; [7]
  body weights (in words): no difference in body weights
[2]; 0.1% CLA and/or 0.1% NDGA
  body weights (in words): no difference in body weights
3T3-L1 adipocytes
  glycerol released from the cell (in words): reduced the glycerol release
[1]; [8]
  LPL activity (in words): significantly reduced LPL activity
[1]
  potency in reducing LPL (rank order, in words): AA861>NDGA>ETYA>Indomethacin>CLA
ICR mice [3]; [9]
  % Ash: 3.29 ± 0.12%
  ECW (empty carcass weight): 32.2 ± 0.6 g
ICR mice [3]; [10]
  % Ash: 3.43 ± 0.09%
  ECW (empty carcass weight): 31.9 ± 1.3 g
ICR mice [3]; [7]
  body composition versus control (in words): no effect on body composition
ICR mice [3]; 0.1% CLA and/or 0.1% NDGA
  body composition versus control (in words): reduced fat (p<0.209) and increased water and protein
Fat tissue
  lipolysis in fat tissue (in words): reduce lipolysis
[4]; [9]
  food intake, Total: 136.3 ± 1.3 g/mouse
[4]; [10]
  food intake, Total: 137.9 ± 1.9 g/mouse
[4]; [11]
  food intake, Week 1: 33.8 ± 0.6 g/mouse
  food intake, Week 4: 34.0 ± 0.4 g/mouse
[4]; [12]
  food intake, Week 1: 35.2 ± 0.7 g/mouse
  food intake, Week 4: 33.8 ± 1.0 g/mouse

## CCCCC[C@H](O)/C=C/[C@H]1[C@H](O)CC(=O)[C@@H]1C/C=C\CCCC(=O)O [PGE2, Prostaglandin E2]
[1]; [13]
  LPL activity (in words): no effect on LPL

## CC(=O)Oc1ccccc1C(=O)O [aspirin, Acetylsalicylic acid]
[1]; [13]
  LPL activity (in words): no effect on LPL
[1]; [8]
  LPL activity (in words): no effect
ICR mice [5]; 0.006% or 0.03% aspirin with 0.5% CLA
  effect of added aspirin on CLA's effects on body composition (in words): did not change any of CLA's effects
ICR mice [5]; 0.5% CLA with or without aspirin, aspirin alone 0.03%
  body composition versus control (in words): no effect on body composition
[6]
  body weights, weeks 0 through 3 (in words): no difference in body weights
